{"source": "patent US12162934B2", "about": "“Gremlin-1 antagonist for the prevention and treatment of cancer” (UCB BIOPHARMA SRL, priority 2018, dated 2024)", "key": {"Vil1-Grem1 mice": {"test_system": "Vil1-Grem1 mice", "assay": "Vil1-Grem1 mouse polyposis model (phenotype, survival)", "details": "for median survival: vehicle 242 days"}, "[1]": {"test_system": "Foxl1, Wnt5A and Wnt2B expression", "assay": "In situ hybridisation of Foxl1 and Wnt ligands in Vil1-Grem1 villus stroma", "type": "in vivo, mouse", "protocol": "To investigate the source of Wnt ligand expression in the villus ectopic crypts in antibody treated and untreated Vil1-Grem1 mice (n=4) we used Foxl1 in situ hybridization (ISH) to identify sub-epithelial telocyte cells as described by Shoshkes-Carmel et al. (2018). Foxl1 expression levels were quantified using the HALO image analysis software.\nParaffin blocks were sectioned (thickness=[…]) using DEPC (Sigma) treated H2O and sections were baked for 2 hours at 60° C. Tissue was deparaffinised and treated with RNAscope Hydrogen Peroxide (ACD 322335) for 10 min at room temperature (RT). Antigen retrieval was performed for 15 minutes using RNAscope 1× Target Retrieval Reagents (1:10 ACD 322000) at 100° C. Samples were treated with RNAscope Protease Plus (ACD 322331) for 30 minutes at 40° C. using an HybEZ Hybridization System (ACD). Probes were incubated for 2 h at 40° C. Probes used were as follows: LGR4 (ACD 318321), LGR5 (ACD 312171), FZD5 (ACD 404911), FZD7 (ACD 534101), WNT2B (ACD 405031), WNT5A (ACD 316791), WNT5A-C3 (ACD, 316791-C3) and FOXL1 (ACD 407401). Slides were counter-stained using Haematoxylin […] or DAPI (Fluorescent).\nSlides were scanned at 20× magnification using an Aperio CS2 Digital Pathology Scanner (Leica Biosystems). […] Foxl1 expression levels were quantified using the HALO image analysis platform (PerkinElmer) and expressed as % of DAB staining per area. […]"}, "[2]": {"test_system": "intestinal epithelial pSMAD1,5 signalling", "assay": "Western blot of intestinal epithelial pSMAD1,5 in treated Vil1-Grem1 animals", "type": "in vivo, mouse", "protocol": "Western blotting. Isolation of colon epithelium cells was carried out by incubating a 2 cm long piece of tissue with 30 mM EDTA for 2 h with agitation at 4° C. Pelleted epithelial cells were lysed RIPA lysis buffer with the addition of protease inhibitors (Complete Mini, Roche) and phosphatase inhibitors (PhosSTOP, Roche). All lysates were quantified using the BCA assay (Thermo Scientific), […] was diluted in an appropriate amount of 4× loading dye (Invitrogen) and denatured at 95° C. for 5 minutes. Western blotting was done with the NuPAGE Gel system, (Invitrogen) according to manufacturer's protocol. Briefly, denatured lysates were loaded onto a 4-12% gel and run at 100 V for at least 2 hours. The gels were transferred onto PVDF membrane (Immobilon P, Millipore) in a semi-dry tank (120 mA for at least 2 hours) and blocked by incubating for 1 hour at room temperature in TBS containing 10% milk (Marvel). […] After further washes, the blots were incubated in ECL reagents (GE healthcare) and chemiluminescence was detected by chemiluminescence film (GE Healthcare).\nEpithelial BMP activity can be measured by phosphorylation of the SMAD 1,5,8 intracellular signalling transducers.\nThe aberrant epithelial Grem1 expression in Vil1-Grem1 mice suppressed physiological intestinal BMP pathway activity with reduction in detected pSMAD1,5 protein levels detected by Western blot."}, "5TGM1.Bmx1 MM PCs [3]": {"test_system": "5TGM1.Bmx1 MM PCs", "assay": "5TGM1/KaLwRij mouse model of multiple myeloma, antibody after tumour cell inoculation", "type": "in vivo", "details": "for Reduction in MM tumour burden (BLI): 30 mg/kg s.c. every 3 days from 3 days post-inoculation, 4 weeks", "protocol": "Targeting Grem1 in an immunocompetent murine model of systemic MM: C57BL/KaLwRij mice (6-8-week-old) were inoculated with 5×10^5 5TGM1.Bmx1 cells via tail vein injection. Three days post-inoculation with 5TGM1.Bmx1 MM PCs, KaLwRij mice were administered with 30 mg/kg Grem1-neutralising antibody Ab7326 or IgG control Ab101.4 (UCB-Pharma, UK) by subcutaneous (s.c.) injection. Mice were treated every 3 days for the duration of the 4-week model. Tumour burden was monitored weekly by BLI as previously described. At the end of the experiment, blood was collected by tail bleed, centrifuged at 2100 g for 10 min and serum collected. Serum paraprotein levels were analysed using the Hydragel 30 β1β2 kit (Sebia Electrophoresis, Georgia, USA) following the instructions of the manufacturer. The band corresponding to paraprotein was quantitated relative to serum albumin levels. (SAAMRI Animal Ethics SAM165)"}, "5TGM1.Bmx1 MM PCs [4]": {"test_system": "5TGM1.Bmx1 MM PCs", "assay": "5TGM1/KaLwRij mouse model of multiple myeloma, antibody prior to tumour cell inoculation", "type": "in vivo", "protocol": "Targeting Grem1 prior to tumour cell inoculation in an immunocompetent murine model of systemic MM: C57BL/KaLwRij mice (6-8-week-old) were administered two doses of 30 mg/kg Grem1-neutralising antibody Ab7326 or IgG control Ab101.4 (UCB-Pharma, UK) by subcutaneous (s.c.) injection three days and one day prior to tumour inoculation. At Day 0, mice were inoculated with 5×10^5 5TGM1.Bmx1 cells via tail vein injection. Mice continued to receive either 30 mg/kg Grem1-neutralising antibody Ab7326 or IgG control Ab101.4 (UCB-Pharma, UK) by s.c. injection every 3 days for the duration of the 4-week model. Tumour burden was monitored weekly by BLI as previously described. At the end of the experiment, blood was collected by tail bleed, centrifuged at 2100 g for 10 min and serum collected. Serum paraprotein levels were analysed using the Hydragel 30 β1β2 kit (Sebia Electrophoresis, Georgia, USA) according to the manufacturer's instructions. The band corresponding to paraprotein was quantitated relative to serum albumin levels. (SAHMRI Animal Ethics SAM165)"}}}
{"substance": "Ab7326: allosteric inhibitory anti-Gremlin-1 antibody from a naïve human library; CDRs SEQ ID NOS 4 to 9; mouse IgG1 in mouse experiments", "values": [{"measurement": "Villus ectopic crypt formation and cell fate determination (immunohistochemical staining)", "setting": "Vil1-Grem1 mice; 30 mg/kg twice weekly for 6 weeks", "value": "reversal of villus ectopic crypt formation and deranged cell fate determination"}, {"measurement": "Pan-intestinal polyposis phenotype", "setting": "Vil1-Grem1 mice; 30 mg/kg twice weekly subcutaneous for 6 weeks", "value": "highly significant abrogation"}, {"measurement": "Animal lifespan", "setting": "Vil1-Grem1 mice; 30 mg/kg weekly subcutaneous from 6 weeks of age, prolonged dosing", "value": "significantly prolongs animal lifespan"}, {"measurement": "Adverse events", "setting": "Vil1-Grem1 mice; Grem1 initiated polyposis models, animals treated for more than 400 days", "value": "No consistent adverse events have been observed"}, {"measurement": "median survival", "setting": "Vil1-Grem1 mice; early stage treatment (42 days), 30 mg/kg weekly", "value": 540, "unit": "days"}, {"measurement": "median survival", "setting": "Vil1-Grem1 mice; established polyposis, 30 mg/kg weekly from 5 months", "value": 477, "unit": "days"}, {"measurement": "Vil1-Grem1 intestinal phenotype at timed sacrifice", "setting": "Vil1-Grem1 mice; established polyposis, over 4 weeks of treatment", "value": "reversion of the Vil1-Grem1 intestinal phenotype"}, {"measurement": "median survival", "setting": "Vil1-Grem1 mice; late-stage treatment (120 days), 30 mg/kg weekly", "value": 519, "unit": "days"}, {"measurement": "Stromal Wnt ligand (5A and 2B) expression (ISH)", "setting": "[1]; antibody-treated Vil1-Grem1 mice", "value": "abrogated Wnt ligand expression"}, {"measurement": "Villus stromal Foxl1 expression (ISH)", "setting": "[1]; antibody-treated Vil1-Grem1 vs WT p=0.4864", "value": "restored Foxl1 expression levels"}, {"measurement": "Restoration of intestinal epithelial pSMAD1,5 signalling", "setting": "[2]; 10 mg/kg weekly subcutaneous", "value": "not"}, {"measurement": "Restoration of intestinal epithelial pSMAD1,5 signalling", "setting": "[2]; 30 mg/kg weekly subcutaneous", "value": "able to restore"}, {"measurement": "Reduction in MM tumour burden (BLI)", "setting": "5TGM1.Bmx1 MM PCs [3]; vs IgG control", "value": "~50", "unit": "%"}, {"measurement": "Reduction in MM tumour burden (BLI)", "setting": "5TGM1.Bmx1 MM PCs [3]; vs IgG control, listed as Grem1-neutralising antibody", "value": "approximately 50%"}, {"measurement": "Tumour burden in the hindlimb bones (BLI)", "setting": "5TGM1.Bmx1 MM PCs [3]; antibody after tumour cell inoculation, vs IgG control", "value": "significant reduction"}, {"measurement": "Splenic tumour burden", "setting": "5TGM1.Bmx1 MM PCs [3]; post-tumour cell inoculation group", "value": "downwards trend"}, {"measurement": "M-spike intensity relative to serum albumin (SPEP)", "setting": "5TGM1.Bmx1 MM PCs [3]; week 4, vs IgG control", "value": "significantly lower"}, {"measurement": "Reduction in tumour burden (BLI)", "setting": "5TGM1.Bmx1 MM PCs [4]; 30 mg/kg s.c. from three days prior to inoculation, 4-weeks post-tumour cell inoculation, vs IgG control", "value": "approximately 75%"}, {"measurement": "Tumour burden in the hindlimb bones (BLI)", "setting": "5TGM1.Bmx1 MM PCs [4]; antibody prior to tumour cell inoculation, vs IgG control", "value": "significant reduction"}, {"measurement": "Additional reduction in overall tumour burden compared with treatment following tumour cell inoculation", "setting": "5TGM1.Bmx1 MM PCs [4]; end of the study", "value": 25, "unit": "%"}, {"measurement": "Splenic tumour burden", "setting": "5TGM1.Bmx1 MM PCs [4]; pre-tumour cell inoculation group", "value": "downwards trend"}, {"measurement": "M-spike intensity relative to serum albumin (SPEP)", "setting": "5TGM1.Bmx1 MM PCs [4]; week 4, vs IgG control", "value": "significantly lower"}]}
